Results taken from ChEMBL document CHEMBL1201862, “PubChem BioAssay data set” (2004).
pIC50: −log10 of the molar value. Calls of active or inactive are those of the source.

What was measured:
[1] = target: T1, Microphthalmia-associated transcription factor (Homo sapiens, UniProt O75030); experiment: reducers of TRPM1 reporter luminescence, concentration series – cell-based, SK-MEL-5, cherry-picked, set 3, MITF inhibitor project, dose response (AID 493073); assay type: functional;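 further: SK-MEL-5 melanoma cells with luciferase driven by the MITF target TRPM1 promoter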
T1 sequence (O75030 whole entry): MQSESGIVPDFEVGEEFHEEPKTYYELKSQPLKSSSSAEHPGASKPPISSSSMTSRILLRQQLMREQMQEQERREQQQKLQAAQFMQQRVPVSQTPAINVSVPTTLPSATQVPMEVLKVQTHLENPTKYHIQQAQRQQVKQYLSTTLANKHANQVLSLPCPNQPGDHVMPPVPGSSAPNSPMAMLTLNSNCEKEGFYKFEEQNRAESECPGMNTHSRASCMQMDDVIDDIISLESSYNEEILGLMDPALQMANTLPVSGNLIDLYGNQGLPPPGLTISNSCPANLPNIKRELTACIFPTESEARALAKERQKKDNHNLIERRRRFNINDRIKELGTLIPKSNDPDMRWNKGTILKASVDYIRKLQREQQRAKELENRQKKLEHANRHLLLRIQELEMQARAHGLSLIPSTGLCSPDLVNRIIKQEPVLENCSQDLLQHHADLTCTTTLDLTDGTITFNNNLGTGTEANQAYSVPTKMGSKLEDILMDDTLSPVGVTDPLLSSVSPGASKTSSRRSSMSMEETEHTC

[2] = target: T2, Zinc finger protein mex-5 (Caenorhabditis elegans, UniProt Q9XUB2); experiment: potency of MEX-5 RNA-binding blockers – biochemical, C. elegans, fluorescence polarization, dose response (AID 1960)
T2 sequence (Q9XUB2 whole entry): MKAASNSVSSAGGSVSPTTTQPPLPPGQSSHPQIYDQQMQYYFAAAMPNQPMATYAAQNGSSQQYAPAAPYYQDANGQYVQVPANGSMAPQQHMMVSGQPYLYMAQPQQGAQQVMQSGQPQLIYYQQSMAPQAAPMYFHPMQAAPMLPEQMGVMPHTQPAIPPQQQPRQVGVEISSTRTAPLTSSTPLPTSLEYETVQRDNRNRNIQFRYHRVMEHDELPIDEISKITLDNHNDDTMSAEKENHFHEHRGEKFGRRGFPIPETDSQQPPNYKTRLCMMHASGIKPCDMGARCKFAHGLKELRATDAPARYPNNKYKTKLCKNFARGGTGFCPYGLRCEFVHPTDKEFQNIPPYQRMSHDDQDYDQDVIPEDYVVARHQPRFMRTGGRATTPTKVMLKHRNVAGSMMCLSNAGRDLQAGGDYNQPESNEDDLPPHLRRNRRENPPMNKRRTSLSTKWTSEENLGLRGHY

A-375 = experiment: proliferation inhibition in MITF-low A375 cells – cell-based, cherry-pick samples, set 2, counter-screen for MITF modulator project, dose response (AID 540335); assay type: functional; conditions: Homo sapiens
[3] = target: T3, RNA-binding protein pos-1 (Caenorhabditis elegans, UniProt G5EF15); experiment: disruptors of C. elegans POS-1 RNA interaction – biochemical, fluorescence polarization, dose response (AID 1964);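 further: purified POS-1 fused to maltose binding protein made in E. coli; potency of compounds blocking POS-1 binding to fluorescent RNA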
T3 sequence (G5EF15 whole entry): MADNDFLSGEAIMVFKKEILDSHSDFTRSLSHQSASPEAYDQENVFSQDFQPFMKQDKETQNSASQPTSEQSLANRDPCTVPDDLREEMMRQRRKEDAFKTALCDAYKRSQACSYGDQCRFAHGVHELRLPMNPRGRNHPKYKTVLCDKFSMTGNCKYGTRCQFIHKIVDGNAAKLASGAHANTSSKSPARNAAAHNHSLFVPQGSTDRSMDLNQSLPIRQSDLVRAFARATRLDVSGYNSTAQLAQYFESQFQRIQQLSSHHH

[4] = target: Apoptotic protease-activating factor 1 (Homo sapiens, UniProt O14727); assay type: functional
Jurkat = experiment: SAR Analysis of small molecule inhibitors of T-cell specific antigen receptor-induced NF-kB activation in a Jurkat cell line using a luminescence assay - Set 2. [Related pubchem assays (depositor defined):AID435003, AID435012, AID465]; assay type: functional, cell-based; conditions: Homo sapiens
HEK293 [5] = experiment: SAR Analysis of small molecule inhibitors of T-cell specific antigen receptor-induced NF-kB activation in a HEK-293T cell line using a luminescence assay - Set 2. [Related pubchem assays (depositor defined):AID435003, AID435012, AID489026]; assay type: functional, cell-based; conditions: Homo sapiens
HEK293 [6] = experiment: HEK293T cell viability loss, resazurin readout – resazurin fluorescence, cytotoxicity control for NF-kB activator project, SAR follow-up (AID 493251); assay type: functional, cell-based; conditions: Homo sapiens
HSP90 = HSP90 (Plasmodium falciparum 3D7, UniProt Q8IL32); assay type: functional, organism-based
HSP90, sequence (Q8IL32 whole entry): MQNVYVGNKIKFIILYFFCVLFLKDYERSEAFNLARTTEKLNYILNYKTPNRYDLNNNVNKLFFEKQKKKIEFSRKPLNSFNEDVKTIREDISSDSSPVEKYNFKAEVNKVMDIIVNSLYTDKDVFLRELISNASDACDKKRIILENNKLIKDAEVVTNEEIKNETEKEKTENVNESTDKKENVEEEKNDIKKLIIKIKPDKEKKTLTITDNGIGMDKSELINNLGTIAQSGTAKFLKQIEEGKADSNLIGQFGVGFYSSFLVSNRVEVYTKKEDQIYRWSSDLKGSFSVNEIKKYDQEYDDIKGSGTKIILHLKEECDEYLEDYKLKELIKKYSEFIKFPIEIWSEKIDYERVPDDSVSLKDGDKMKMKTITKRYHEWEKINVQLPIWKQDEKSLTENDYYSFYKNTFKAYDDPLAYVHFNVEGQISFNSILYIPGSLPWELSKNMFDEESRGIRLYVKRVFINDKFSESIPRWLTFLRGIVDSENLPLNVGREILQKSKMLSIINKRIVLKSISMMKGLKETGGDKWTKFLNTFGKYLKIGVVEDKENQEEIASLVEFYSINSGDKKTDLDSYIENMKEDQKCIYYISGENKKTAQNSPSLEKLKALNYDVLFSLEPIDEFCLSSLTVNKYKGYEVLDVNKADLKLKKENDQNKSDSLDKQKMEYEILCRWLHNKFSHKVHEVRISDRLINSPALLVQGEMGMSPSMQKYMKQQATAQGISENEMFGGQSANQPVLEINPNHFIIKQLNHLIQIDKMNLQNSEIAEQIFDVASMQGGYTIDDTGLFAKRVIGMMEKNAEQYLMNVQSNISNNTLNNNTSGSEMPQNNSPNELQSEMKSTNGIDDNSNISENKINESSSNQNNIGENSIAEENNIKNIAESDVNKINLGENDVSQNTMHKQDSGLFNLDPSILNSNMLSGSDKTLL

[7] = NIH-3T3 fibroblast cytotoxicity, dose response, cytotoxicity control, cell-based, fluorescence, Alamar Blue, secondary assay (AID 2327); assay type: functional;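 further: NIH-3T3 mouse fibroblasts cultured with fluconazole at 8 µg/mL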
[8] = target: Serine/threonine-protein phosphatase (Candida dubliniensis (strain CD36 / CBS 7987 / NCPF 3949 / NRRLY-17841) (Yeast), UniProt B9W6M3); experiment: blockers of CaCl2-induced CDRE-lacZ signaling – S. cerevisiae, luminescence, secondary, dose response (AID 2388); assay type: functional, cell-based;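 further: yeast reporter cells carrying a calcineurin-responsive lacZ construct stimulated with calcium chloride; luminescent beta-galactosidase reporter signal in whole cells rather than isolated phosphatase activity; potency for inhibition where a drop in reporter signal means calcineurin blockade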
Serine/threonine-protein phosphatase, sequence (B9W6M3 whole entry): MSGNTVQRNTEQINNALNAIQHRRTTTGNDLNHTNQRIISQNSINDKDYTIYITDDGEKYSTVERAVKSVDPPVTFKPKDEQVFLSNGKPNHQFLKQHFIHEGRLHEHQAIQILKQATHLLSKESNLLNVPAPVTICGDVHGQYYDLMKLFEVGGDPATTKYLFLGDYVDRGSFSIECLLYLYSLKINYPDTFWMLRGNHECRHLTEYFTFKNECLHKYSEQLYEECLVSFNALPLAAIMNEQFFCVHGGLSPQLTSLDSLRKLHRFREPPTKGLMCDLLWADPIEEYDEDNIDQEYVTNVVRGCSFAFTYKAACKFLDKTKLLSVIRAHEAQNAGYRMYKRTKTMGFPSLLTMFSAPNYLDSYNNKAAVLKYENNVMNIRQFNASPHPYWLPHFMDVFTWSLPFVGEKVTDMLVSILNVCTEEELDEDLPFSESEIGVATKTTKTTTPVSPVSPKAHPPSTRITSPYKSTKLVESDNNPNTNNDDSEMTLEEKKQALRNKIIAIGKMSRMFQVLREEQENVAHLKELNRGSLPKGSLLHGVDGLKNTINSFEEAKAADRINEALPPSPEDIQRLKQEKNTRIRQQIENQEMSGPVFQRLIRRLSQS

[9] = fluconazole-exposed Candida albicans growth modulators – fluorescence, retest, confirmation (AID 2467); assay type: functional, cell-based
[10] = target: ATP-dependent molecular chaperone HSP82 (Candida albicans (strain WO-1) (Yeast), UniProt C4YTQ8); experiment: steroid-induced GRE reporter decrease in yeast – S. cerevisiae, luminescence, Hsp90 inhibitor project, dose response (AID 2400); assay type: functional, cell-based;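 further: beta-galactosidase luminescence from glucocorticoid response element reporter as proxy for Hsp90 function; inhibitor potency where signal loss means Hsp90 inhibition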
ATP-dependent molecular chaperone HSP82, sequence (C4YTQ8 whole entry): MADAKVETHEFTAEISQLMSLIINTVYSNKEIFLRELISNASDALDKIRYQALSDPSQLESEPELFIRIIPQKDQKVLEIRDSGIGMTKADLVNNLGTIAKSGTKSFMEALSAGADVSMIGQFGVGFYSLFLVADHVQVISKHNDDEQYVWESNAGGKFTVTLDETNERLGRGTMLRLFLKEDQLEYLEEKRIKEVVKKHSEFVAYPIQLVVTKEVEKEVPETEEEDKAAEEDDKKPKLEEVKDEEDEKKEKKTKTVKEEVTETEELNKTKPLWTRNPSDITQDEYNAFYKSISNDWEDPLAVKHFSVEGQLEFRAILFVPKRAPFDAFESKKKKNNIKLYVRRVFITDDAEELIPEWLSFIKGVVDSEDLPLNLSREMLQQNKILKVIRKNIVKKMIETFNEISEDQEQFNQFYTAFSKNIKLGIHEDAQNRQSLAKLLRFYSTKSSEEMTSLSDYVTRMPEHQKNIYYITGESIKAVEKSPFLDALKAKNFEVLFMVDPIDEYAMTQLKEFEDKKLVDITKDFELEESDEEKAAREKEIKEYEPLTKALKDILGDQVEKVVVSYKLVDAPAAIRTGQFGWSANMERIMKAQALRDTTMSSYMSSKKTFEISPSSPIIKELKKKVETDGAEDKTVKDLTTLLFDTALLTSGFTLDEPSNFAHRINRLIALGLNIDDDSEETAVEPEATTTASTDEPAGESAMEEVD

[11] = NIH3T3 cell viability loss – ATP luminescence, mouse fibroblasts, counter-screen, dose response (AID 2010); assay type: functional, cell-based;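 further: cells exposed to compound for about 90 hours before reading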
INS1 [12] = experiment: INS-1E survival protection against cytokine death – cell-based, luminescence, retest, dose response (AID 449756); assay type: functional; conditions: Rattus norvegicus;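 further: cell death triggered by IL-1 beta plus TNF-alpha plus IFN-gamma mixture; protective hits raise ATP signal compared with cytokine alone wells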
[13] = Trypanosoma cruzi growth suppression in host cells – NIH3T3 host cells, beta-gal luminescence, confirmation (AID 2044); assay type: functional, cell-based;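 further: intracellular parasites grown in NIH/3T3 mouse fibroblasts as host cells; luminescent beta-galactosidase reporter signal from transgenic T. cruzi replicating inside host cells; inhibitors lower the luminescence signal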
Beta-galactosidase = Beta-galactosidase (Escherichia coli, UniProt Q8VNN2); assay type: functional
Beta-galactosidase, sequence (Q8VNN2 whole entry): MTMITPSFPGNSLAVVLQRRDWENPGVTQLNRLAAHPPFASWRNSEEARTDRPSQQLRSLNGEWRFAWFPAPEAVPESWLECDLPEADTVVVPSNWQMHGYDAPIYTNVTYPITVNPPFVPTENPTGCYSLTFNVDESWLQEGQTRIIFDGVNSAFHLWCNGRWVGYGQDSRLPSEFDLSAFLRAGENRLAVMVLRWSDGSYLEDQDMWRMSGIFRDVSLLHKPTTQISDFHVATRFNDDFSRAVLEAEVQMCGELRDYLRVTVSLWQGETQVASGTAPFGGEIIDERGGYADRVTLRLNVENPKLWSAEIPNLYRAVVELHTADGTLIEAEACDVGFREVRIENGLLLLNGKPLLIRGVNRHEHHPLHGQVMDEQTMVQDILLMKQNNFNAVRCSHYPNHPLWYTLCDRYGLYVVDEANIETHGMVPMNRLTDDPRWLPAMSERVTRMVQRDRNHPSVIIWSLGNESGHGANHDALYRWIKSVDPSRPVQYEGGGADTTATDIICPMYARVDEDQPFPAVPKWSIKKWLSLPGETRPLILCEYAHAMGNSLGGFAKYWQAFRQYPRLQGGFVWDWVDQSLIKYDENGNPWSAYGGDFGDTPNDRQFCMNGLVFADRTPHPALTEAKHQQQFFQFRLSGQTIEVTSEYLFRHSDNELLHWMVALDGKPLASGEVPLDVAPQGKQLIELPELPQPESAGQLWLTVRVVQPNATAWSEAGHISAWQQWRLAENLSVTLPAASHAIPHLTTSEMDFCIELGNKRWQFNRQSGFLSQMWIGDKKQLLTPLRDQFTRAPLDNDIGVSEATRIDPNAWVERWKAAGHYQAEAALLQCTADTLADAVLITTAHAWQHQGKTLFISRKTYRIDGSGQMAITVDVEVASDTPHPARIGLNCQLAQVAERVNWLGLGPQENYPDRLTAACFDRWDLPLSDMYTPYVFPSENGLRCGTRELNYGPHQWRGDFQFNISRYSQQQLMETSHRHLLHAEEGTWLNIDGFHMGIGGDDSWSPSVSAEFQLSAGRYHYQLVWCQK

[14] = target: T4, Kappa-type opioid receptor (Homo sapiens, UniProt P41145); assay type: functional
T4 sequence (P41145 whole entry): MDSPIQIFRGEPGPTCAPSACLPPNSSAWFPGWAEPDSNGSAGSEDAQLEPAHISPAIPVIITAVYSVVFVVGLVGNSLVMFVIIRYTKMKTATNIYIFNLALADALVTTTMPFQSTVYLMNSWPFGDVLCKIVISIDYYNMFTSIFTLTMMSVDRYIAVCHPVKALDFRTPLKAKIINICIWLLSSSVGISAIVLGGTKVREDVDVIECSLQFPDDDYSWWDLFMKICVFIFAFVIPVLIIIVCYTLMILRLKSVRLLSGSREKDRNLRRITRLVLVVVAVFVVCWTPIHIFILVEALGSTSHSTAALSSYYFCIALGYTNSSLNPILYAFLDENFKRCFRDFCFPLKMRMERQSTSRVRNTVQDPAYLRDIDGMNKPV

Beta Lactamase [15] = target: T5, Beta Lactamase (Pseudomonas aeruginosa, UniProt Q932Y6); experiment: BLA reporter interference, concentration series – BLA reporter cells, FRET fluorescence, artefact control for TLR9-MyD88 binding inhibitor project, dose response (AID 588341); assay type: cell-based;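 further: cell based assay in CHO-K1 cells stably expressing beta-lactamase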
T5 sequence (Q932Y6 whole entry): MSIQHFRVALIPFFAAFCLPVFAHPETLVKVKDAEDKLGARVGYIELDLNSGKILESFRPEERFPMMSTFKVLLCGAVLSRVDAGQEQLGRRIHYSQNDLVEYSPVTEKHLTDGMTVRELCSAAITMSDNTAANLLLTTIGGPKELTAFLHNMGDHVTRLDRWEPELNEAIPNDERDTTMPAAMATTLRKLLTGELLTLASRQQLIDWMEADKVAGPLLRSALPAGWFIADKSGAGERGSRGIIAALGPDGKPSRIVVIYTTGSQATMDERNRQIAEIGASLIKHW

Beta Lactamase [16] = target: T5, Beta Lactamase; experiment: BLA reporter interference, concentration series – BLA reporter cells, FRET fluorescence, artefact control for NOD2-RIPK2 interaction inhibitor project, dose response (AID 651552); assay type: functional, cell-based
[17] = viability loss in HeLa cells – cytotoxicity control for MgcRacGAP inhibitor project, dose response (AID 624300); assay type: functional
[18] = Fluorescence-based cell-based high throughput dose response assay for inhibitors of the interaction of nucleotide-binding oligomerization domain containing 2 (NOD2) and the receptor-interacting serine-threonine kinase 2 (RIPK2).; assay type: functional; conditions: Homo sapiens
[19] = target: T4, Kappa-type opioid receptor; assay type: functional; remark: listed apart in the source
Large T antigen = Large T antigen (Simian virus 40, UniProt P03070); assay type: functional, Betapolyomavirus macacae;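 further: Confirmatory-stage PubChem screen for compounds that inhibit SV40 T antigen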
Large T antigen, sequence (P03070 whole entry): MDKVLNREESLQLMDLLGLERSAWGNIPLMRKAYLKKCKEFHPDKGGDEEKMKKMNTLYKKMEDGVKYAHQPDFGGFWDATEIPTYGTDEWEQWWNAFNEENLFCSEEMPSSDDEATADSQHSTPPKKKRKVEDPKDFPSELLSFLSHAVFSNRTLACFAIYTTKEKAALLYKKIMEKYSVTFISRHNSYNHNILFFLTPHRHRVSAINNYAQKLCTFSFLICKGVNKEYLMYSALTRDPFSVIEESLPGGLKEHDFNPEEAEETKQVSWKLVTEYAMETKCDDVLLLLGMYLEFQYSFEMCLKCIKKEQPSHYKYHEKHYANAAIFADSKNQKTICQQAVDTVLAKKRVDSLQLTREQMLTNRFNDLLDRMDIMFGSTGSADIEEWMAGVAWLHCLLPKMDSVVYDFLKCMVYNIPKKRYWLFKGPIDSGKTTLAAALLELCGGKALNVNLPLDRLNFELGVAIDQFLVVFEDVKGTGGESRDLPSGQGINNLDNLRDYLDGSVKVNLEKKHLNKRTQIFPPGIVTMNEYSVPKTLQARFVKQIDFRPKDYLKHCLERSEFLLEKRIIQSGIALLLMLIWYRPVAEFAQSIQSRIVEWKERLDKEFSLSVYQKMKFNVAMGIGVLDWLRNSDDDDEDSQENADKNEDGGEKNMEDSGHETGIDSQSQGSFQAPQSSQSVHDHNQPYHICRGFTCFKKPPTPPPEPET

[20] = target: T6, Rac GTPase-activating protein 1 (Homo sapiens, UniProt Q9H0H5); experiment: blockers of MgcRacGAP-driven Rac1 GTP hydrolysis – biochemical, ADP Hunter fluorescence, primary and confirmatory, confirmation (AID 624330); assay type: functional
T6 sequence (Q9H0H5 whole entry): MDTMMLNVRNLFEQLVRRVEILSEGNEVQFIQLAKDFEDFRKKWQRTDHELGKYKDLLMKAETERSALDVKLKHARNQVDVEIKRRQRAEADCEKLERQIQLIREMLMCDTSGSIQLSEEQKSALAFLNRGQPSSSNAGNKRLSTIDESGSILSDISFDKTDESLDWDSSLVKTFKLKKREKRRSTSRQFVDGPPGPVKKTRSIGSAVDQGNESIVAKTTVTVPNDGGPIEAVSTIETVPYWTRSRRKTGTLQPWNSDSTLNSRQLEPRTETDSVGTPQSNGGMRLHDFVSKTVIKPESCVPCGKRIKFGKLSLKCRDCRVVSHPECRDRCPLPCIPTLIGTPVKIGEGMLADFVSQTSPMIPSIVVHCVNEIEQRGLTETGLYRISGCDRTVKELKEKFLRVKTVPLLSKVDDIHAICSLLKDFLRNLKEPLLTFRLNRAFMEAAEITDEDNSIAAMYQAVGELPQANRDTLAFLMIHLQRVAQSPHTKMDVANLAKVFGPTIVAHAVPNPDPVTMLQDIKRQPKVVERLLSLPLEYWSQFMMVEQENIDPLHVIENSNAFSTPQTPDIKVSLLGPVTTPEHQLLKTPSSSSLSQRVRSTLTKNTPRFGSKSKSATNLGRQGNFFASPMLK

CHO = CHO cell viability loss, potency – luminescence, cytotoxicity control for TLR9-MyD88 binding inhibitor project, dose response (AID 588339); assay type: functional, cell-based, hamster; conditions: Cricetulus griseus;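 further: CHO cells stably coexpressing TLR9 and MyD88 fusions from primary screen; compound exposure lasted 48 hours before viability readout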
[21] = target: Beta-2 adrenergic receptor (Homo sapiens, UniProt P07550); experiment: ADRB2 activation measured by internalization – cell-based, FAP fluorogen, flow cytometry, cherry pick 1, dose response (AID 588763); assay type: functional
INS1 [22] = experiment: beta-cell survival under cytokine stress – INS-1E, ATP luminescence, dry powder, dose response (AID 488844); assay type: functional, cell-based; conditions: Rattus norvegicus
INS1 [23] = experiment: INS-1E mitochondrial potential rescue under cytokines – cell-based, JC-1 fluorescence ratio, dry powder, dose response (AID 488931); assay type: functional; conditions: Rattus norvegicus
INS1 [24] = experiment: suppression of NO production in INS-1E cells – cell-based, Griess absorbance, dry powder, set 2, dose response (AID 488868); assay type: functional; conditions: Rattus norvegicus
INS1 [25] = experiment: INS-1E mitochondrial potential loss inhibitors – cell-based, JC-1 fluorescence, dry powder, set 2, dose response (AID 488867); assay type: functional; conditions: Rattus norvegicus
[26] = luciferase inhibitors in kinase-free ADP detection – biochemical, luminescence, cherry-pick, set 02, artefact control for Dyrk1A inhibitor project, dose response (AID 588348)

With `Cc1ccc(C(=O)N/C(=C\c2ccc(-c3ccccc3[N+](=O)[O-])o2)C(=O)NCCCN(C)C)cc1` the AC50 [1] was 3.28 µM (active), the EC50 [2] was 18.6 µM (active) and the AC50 (A-375) was 33.4 µM (active). For the same molecule, the EC50 [3] was > 300 µM (inconclusive) and the IC50 [4] was 70.1 µM (active).
With `COc1cc(NC(=O)c2ccc3c(c2)OCO3)ccc1NC(=O)c1cc2ccccc2o1` the IC50 (Jurkat) was > 79 µM (inactive), the IC50 (HEK293 [5]) was > 80 µM (inactive) and the IC50 (HEK293 [6]) was > 80 µM (inactive).
With `O=C(COc1ccc(Cl)cc1)NC1=NN(c2ccccc2)C(=O)C1` the AC50 (HSP90) was 32.5 µM (active).
With `CCOc1ccccc1NC(=O)C(=O)N/N=C/c1cc(Br)ccc1O` the EC50 [7] was > 160 µM (inactive), the AC50 [1] was 3.34 µM (active) and the EC50 [8] was > 180 µM (inactive). For the same molecule, the EC50 [9] was 0.358 µM (active), the EC50 [10] was > 160 µM (inactive) and the EC50 [11] was > 60 µM (not active). For the same molecule, the AC50 (INS1 [12]) was 1.04 µM (active) and the EC50 [13] was 1.02 µM (active).
For `N#CC(C#N)=C1C=CC=CN1/C(=C\c1ccco1)C(=O)c1ccc(Br)cc1`, the EC50 (Beta-galactosidase) was > 31.5 µM (inactive), the IC50 [14] was 4.51 µM (active) and the IC50 (Beta Lactamase [15]) was 13.2 µM (inactive). The IC50 (Beta Lactamase [16]) was 44.7 µM (inactive), the AC50 [1] was 5.59 µM (active) and the CC50 [17] was 100 µM (active). For the same molecule, the IC50 [18] was 0.895 µM (active), the pIC50 [19] was 4.81 and the IC50 (Large T antigen) was 15.5 µM (active). For the same molecule, the IC50 [20] was 88.7 µM (active), the AC50 (INS1 [12]) was 7.3 µM (active) and the IC50 (CHO) was 1.56 µM (active).
For `CN(c1ccccc1)S(=O)(=O)c1cccc(C(=O)Nc2cccc(C(=O)NC3CC3)c2)c1`, the EC50 [21] was 0.575 µM (active).
For `Cc1ccc(S(=O)(=O)N(C)C[C@@H]2Oc3c(NC(=O)Nc4cccc5ccccc45)cccc3C(=O)N([C@H](C)CO)C[C@H]2C)cc1`, the AC50 (INS1 [22]) was > 235 µM (inactive), the AC50 (INS1 [23]) was 61.1 µM (active) and the AC50 (INS1 [24]) was 30.3 µM (active).
In the case of `COc1ccc(S(=O)(=O)N(C)C[C@@H]2Oc3c(NC(=O)Nc4ccc(F)cc4)cccc3C(=O)N([C@@H](C)CO)C[C@H]2C)cc1`, the AC50 (INS1 [22]) was 22.8 µM (active) and the AC50 (INS1 [25]) was 134 µM (active).
With `CC(=O)Nc1cccc(C(=O)OCC(=O)c2ccc3c(c2)OCO3)c1` the AC50 [26] was 50.2 µM (active).
